Data: patent publication US8912209B2, “Rock inhibitors” (Amakem NV, priority 2010, dated 2014)

What was measured:
[1] = target: T1, ROCKα/ROCKII (Homo sapiens, UniProt O75116); assay: ROCK inhibition, Method 2 fluorescence polarization (FP) assay, ROCK IMAP Kit; type: biochemical; conditions: 10 μM ATP, read-out: IC50 Meth. 2
T1 construct: purchased Upstate Biotechnology 14-451
Procedure: The inhibition assays were performed with a fluorescence polarization (FP) assay using the commercially available ROCK IMAP Kit from Molecular Devices (Product ID. No. R8093), essentially in accordance with the protocol supplied by the manufacturer. […] The enzyme mix ROCKα/ROCKII was obtained from Upstate Biotechnology (Product ID No 14-451).
In summary, all compounds were screened in the wells of a 384 well plate for enzymatic inhibition with concentrations varying from 100 μM to 0.3 nM using a stepwise 3 (or 2)-fold dilution.
To perform the assay, 1 μl of a solution of the compound to be tested in DMSO (at each concentration) was added to 2 μl of a solution of the enzyme in 10 mM Tris-HCl, 10 mM MgCl2, 0.1% BSA, 0.05% NaN3, pH 7,2. The final concentration of the enzyme was 2.6 nM.
After incubating for 30 minutes at RT, 2 μl of a mixture of ATP and the protein substrate in 10 mM Tris-HCl, 10 mM MgCl2, 0.1% BSA, 0.05% NaN3, pH 7.2 was added. The final concentration of the ATP was 10 μM and final concentration of protein substrate was 0.2 μM.
After incubating for 60 minutes at RT, 12 μl of the IMAP Binding Solution (mix of the IMAP Binding Buffer A (1×) and the IMAP Binding Reagent (from the ROCK IMAP kit)) was added.
The mixture thus obtained (total volume: 17 μl) was incubated for 60 minutes at RT, upon which the fluorescence polarization was measured using an automated plate reader (Perkin Elmer, Model Envision 2100-0010 HTS) with FP filters: excitation filter FITC FP 480 and emission filters FITC FP P-pol 535 and FITC FP S-pol 535 (Perkin-Elmer). The results were fitted to a curve using the XL-Fit algorithm and IC50 values were calculated for each fitted curve, again using the XL-Fit algorithm.

[2] = target: T2, ROCK II (Homo sapiens, UniProt O75116); assay: ROCK II kinase inhibition, Method 1 Proqinase setup (33P radioisotopic protein kinase assay); type: biochemical; conditions: 33P radioisotopic assay, 1 μM ATP, read-out: IC50 Meth. 1
T2 construct: purchased Proqinase
T2 sequence (O75116 whole entry): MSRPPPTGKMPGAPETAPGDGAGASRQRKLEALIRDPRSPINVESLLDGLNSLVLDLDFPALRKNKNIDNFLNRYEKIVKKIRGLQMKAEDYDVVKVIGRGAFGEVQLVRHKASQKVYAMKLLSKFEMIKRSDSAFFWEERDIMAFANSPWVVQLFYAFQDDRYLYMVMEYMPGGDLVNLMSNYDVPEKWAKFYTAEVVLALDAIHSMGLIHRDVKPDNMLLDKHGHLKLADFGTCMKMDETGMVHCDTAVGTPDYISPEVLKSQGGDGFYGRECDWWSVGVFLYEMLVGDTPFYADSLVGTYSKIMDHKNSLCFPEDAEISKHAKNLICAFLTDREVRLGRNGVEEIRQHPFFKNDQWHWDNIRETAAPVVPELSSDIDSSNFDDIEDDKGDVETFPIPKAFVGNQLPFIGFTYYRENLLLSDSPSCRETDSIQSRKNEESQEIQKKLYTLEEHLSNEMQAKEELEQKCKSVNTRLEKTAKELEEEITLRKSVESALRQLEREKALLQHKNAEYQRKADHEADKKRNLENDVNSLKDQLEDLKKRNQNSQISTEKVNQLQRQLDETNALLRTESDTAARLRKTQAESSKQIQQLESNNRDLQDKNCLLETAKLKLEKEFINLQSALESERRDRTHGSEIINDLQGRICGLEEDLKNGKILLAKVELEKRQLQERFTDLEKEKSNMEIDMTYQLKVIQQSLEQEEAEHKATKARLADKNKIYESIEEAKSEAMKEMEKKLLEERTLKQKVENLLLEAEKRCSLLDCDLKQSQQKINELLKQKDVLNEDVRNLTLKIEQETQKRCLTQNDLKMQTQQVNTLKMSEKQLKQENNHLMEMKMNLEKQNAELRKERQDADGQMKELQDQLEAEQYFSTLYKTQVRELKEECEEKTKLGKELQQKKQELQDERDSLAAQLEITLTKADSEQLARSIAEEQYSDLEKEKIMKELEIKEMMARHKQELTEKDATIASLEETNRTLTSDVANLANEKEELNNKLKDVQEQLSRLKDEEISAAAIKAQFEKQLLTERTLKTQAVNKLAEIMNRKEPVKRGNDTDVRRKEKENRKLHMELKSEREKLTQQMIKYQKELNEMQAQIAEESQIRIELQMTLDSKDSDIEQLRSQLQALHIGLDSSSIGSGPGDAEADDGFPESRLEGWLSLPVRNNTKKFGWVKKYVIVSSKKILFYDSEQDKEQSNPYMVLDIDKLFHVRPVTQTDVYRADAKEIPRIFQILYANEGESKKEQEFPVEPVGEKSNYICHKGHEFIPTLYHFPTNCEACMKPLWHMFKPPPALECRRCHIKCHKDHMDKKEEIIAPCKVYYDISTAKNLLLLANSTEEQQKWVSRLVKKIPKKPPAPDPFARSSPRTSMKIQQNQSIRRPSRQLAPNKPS
Procedure: A ^33P radioisotopic protein kinase assay is used to determine the IC50 for inhibiting ROCK II. A final 50 μl reaction cocktail, containing 60 mM HEPES-NaOH (pH 7.5), 3 mM MgCl2, 3 mM MnCl2, 3 μM Na-orthovanadate, 1.2 mM DTT, 1 μM ATP, 50 μg/ml PEG20.000, 1% (v/v) DMSO, 1 μM ATP (approx. 3×10^5 cpm ^33P-γ-ATP), the substrate (Substrate: S6 peptide—2000 ng/well) and recombinant protein kinase (0.5 nM-2.5 ng/well) is mixed on a shaker and incubated at 30° C. for 80 minutes. The reaction is stopped by the addition of 50 μl of a 2% solution of H3PO4 and mixed on a shaker. After washing twice with 200 μl of a 0.9% solution of NaCl, the dry plate is counted.

[3] = Stability towards drug metabolizing enzymes in lung S9; type: in vitro ADME; conditions: human, lung S9 from smokers with NADPH, UDPGA, PAPS and GSH, read-out: t½ human lung S9
Procedure: i) C.2.2. Stability Towards Drug Metabolizing Enzymes in Lung S9
A 1 μM solution of the ROCK inhibitors is incubated with a reaction mixture containing lung S9 (from smokers) as well as the cofactors NADPH, UDPGA, PAPS and GSH. Samples are collected at 0, 15, 30 and 60 minutes post incubation. Negative control samples incubated with ROCK inhibitors and S9 fraction in the absence of cofactors are run in parallel. By using LC-MS/MS analysis, the percent of ROCK compounds remaining at each time point, the metabolic half-life of the ROCK compounds (expressed in minutes) and the metabolic half-life of the control compounds are determined.

[4] = Stability assay in rat plasma; type: in vitro ADME; conditions: 1 μM in rat plasma, LC-MS/MS; read-out: t½ rat plasma
Procedure: (§1) C.2.1. Stability Assay in Human and/or Rat Plasma
(§2) Compounds are incubated at a concentration of 1 μM in rat (mice or rabbit) or human plasma. Samples are taken at fixed time points and the remnant of compound is determined by LC-MS/MS after protein precipitation. Half life is expressed in minutes.

[5] = Stability assay in human plasma; type: in vitro ADME; conditions: 1 μM in human plasma, LC-MS/MS; read-out: t½ human plasma
Procedure: as §1, §2

T1 sequence (O75116 whole entry): as above

Row | IC50 [1] | IC50 [2] | half-life at 1 μM [3] | half-life at 1 μM [4] | half-life at 1 μM [5] | SMILES
1 | < 100 nM | 100 to 1000 nM |  |  |  | CC(N)c1ccc(C(=O)Nc2ccncc2)cc1-c1cccc(CCC(=O)Oc2ccccc2)c1 (stereo not drawn) [Compound 167, 3-[2′-(1-Amino-ethyl)-5′-(pyridin-4-ylcarbamoyl)-biphenyl-3-yl]-propionic acid phenyl ester]
2 | < 100 nM | < 100 nM | > 60 min |  |  | CC(N)c1ccc(C(=O)Nc2ccncc2)cc1-c1cccc(C(=O)OCCO)c1 (stereo not drawn) [Compound 65, 2′-(1-Amino-ethyl)-5′-(pyridin-4-ylcarbamoyl)-biphenyl-3-carboxylic acid 2-hydroxy-ethyl ester]
3 | < 100 nM | < 100 nM |  |  |  | CC(N)c1ccc(C(=O)Nc2ccncc2)cc1-c1cccc(C(=O)OCC2CCCCO2)c1 (stereo not drawn) [Compound 45, 2′-(1-Amino-ethyl)-5′-(pyridin-4-ylcarbamoyl)-biphenyl-3-carboxylic acid tetrahydro-pyran-2-ylmethyl ester]
4 | < 100 nM | 100 to 1000 nM |  |  |  | COC(=O)c1cccc(-c2cc(C(=O)Nc3ccncc3F)ccc2C(C)N)c1 (stereo not drawn) [Compound 5, 2′-(1-Amino-ethyl)-5′-(3-fluoro-pyridin-4-ylcarbamoyl)-biphenyl-3-carboxylic acid methyl ester]
5 | < 100 nM | < 100 nM |  |  |  | CCOC(=O)c1cccc(-c2cc(C(=O)Nc3ccncc3)ccc2C(C)N)c1 (stereo not drawn) [Compound 8, 2′-(1-Amino-ethyl)-5′-(pyridin-4-ylcarbamoyl)-biphenyl-3-carboxylic acid ethyl ester]
6 | < 100 nM | < 100 nM |  |  |  | CC(N)c1ccc(C(=O)Nc2ccncc2)cc1-c1cccc(C(=O)Oc2ccccc2)c1 (stereo not drawn) [Compound 70, 2′-(1-Amino-ethyl)-5′-(pyridin-4-ylcarbamoyl)-biphenyl-3-carboxylic acid phenyl ester]
7 |  | < 100 nM |  | 38 min | 44 min | CCSC(=O)c1cccc(-c2cc(C(=O)Nc3ccncc3)ccc2CN)c1 [Compound 97, 2′-Aminomethyl-5′-(pyridin-4-ylcarbamoyl)-biphenyl-3-carbothioic acid S-ethyl ester]
8 | < 100 nM | < 100 nM |  |  |  | CCCOC(=O)c1cccc(-c2cc(C(=O)Nc3ccncc3)ccc2C(C)N)c1 (stereo not drawn) [Compound 11, 2′-(1-Amino-ethyl)-5′-(pyridin-4-ylcarbamoyl)-biphenyl-3-carboxylic acid propyl ester]
9 | 100 to 1000 nM | 100 to 1000 nM |  |  |  | CC(N)c1ccc(C(=O)Nc2ccncc2F)cc1-c1cccc(C(=O)Oc2ccccc2)c1 (stereo not drawn) [Compound 71, 2′-(1-Amino-ethyl)-5′-(3-fluoro-pyridin-4-ylcarbamoyl)-biphenyl-3-carboxylic acid phenyl ester]
10 | < 100 nM | 100 to 1000 nM |  |  |  | CC(N)c1ccc(C(=O)Nc2ccncc2)cc1-c1c[nH]c(C(=O)Oc2ccccc2)c1 (stereo not drawn) [Compound 170, 4-[2-(1-Amino-ethyl)-5-(pyridin-4-ylcarbamoyl)-phenyl]-1H-pyrrole-2-carboxylic acid phenyl ester]
11 | 100 to 1000 nM | < 100 nM |  |  |  | CC(N)c1ccc(C(=O)Nc2ccncc2)cc1-c1cccc(C(=O)OCCCOc2ccccc2)c1 (stereo not drawn) [Compound 88, 2′-(1-Amino-ethyl)-5′-(pyridin-4-ylcarbamoyl)-biphenyl-3-carboxylic acid 3-phenoxy-propyl ester]
12 | < 100 nM | 100 to 1000 nM |  |  |  | CC(N)c1ccc(C(=O)Nc2ccncc2)cc1-c1cccc(OC2CCOC2=O)c1 (stereo not drawn) [Compound 134, 6-(1-Amino-ethyl)-3′-(2-oxo-tetrahydro-furan-3-yloxy)-biphenyl-3-carboxylic acid pyridin-4-ylamide]
13 |  | 100 to 1000 nM |  | < 1 min | 1.9 min | COC(=O)COc1cccc(-c2cc(C(=O)Nc3ccncc3)ccc2CN)c1 [Compound 137, [2′-Aminomethyl-5′-(pyridin-4-ylcarbamoyl)-biphenyl-3-yloxy]-acetic acid methyl ester]
14 | 100 to 1000 nM | 100 to 1000 nM |  |  |  | CC(N)c1ccc(C(=O)Nc2ccncc2)cc1-c1cccc(OCCCSC2CCOC2=O)c1 (stereo not drawn) [Compound 131, 6-(1-Amino-ethyl)-3′-[3-(2-oxo-tetrahydro-furan-3-ylsulfanyl)-propoxy]-biphenyl-3-carboxylylic acid pyridin-4-ylamide]
15 | 100 to 1000 nM | 100 to 1000 nM |  |  |  | CC(C)COC(=O)c1cccc(-c2cc(C(=O)Nc3ccncc3F)ccc2C(C)N)c1 (stereo not drawn) [Compound 28, 2′-(1-Amino-ethyl)-5′-(3-fluoro-pyridin-4-ylcarbamoyl)-biphenyl-3-carboxylic acid isobutyl ester]
16 | 100 to 1000 nM | 100 to 1000 nM |  |  |  | CCCOC(=O)c1cc2c(-c3cc(C(=O)Nc4ccncc4)ccc3C(C)N)cccc2[nH]1 (stereo not drawn) [Compound 172, 4-[2-(1-Amino-ethyl)-5-(pyridin-4-ylcarbamoyl)-phenyl]-1H-indole-2-carboxylic acid propyl ester]
17 | 100 to 1000 nM | 100 to 1000 nM |  |  |  | CCCOC(=O)CCc1cccc(-c2cc(C(=O)Nc3ccncc3)ccc2C(C)N)c1 (stereo not drawn) [Compound 166, 3-[2′-(1-Amino-ethyl)-5′-(pyridin-4-ylcarbamoyl)-biphenyl-3-yl]-propionic acid propyl ester]
18 | < 100 nM | 100 to 1000 nM |  |  |  | CC(N)c1ccc(C(=O)Nc2ccncc2F)cc1-c1cccc(C(=O)OCC2CC2)c1 (stereo not drawn) [Compound 37, 2′-(1-Amino-ethyl)-5′-(3-fluoro-pyridin-4-ylcarbamoyl)-biphenyl-3-carboxylic acid cyclopropylmethyl ester]
19 | < 100 nM | < 100 nM |  |  |  | CCCCOC(=O)c1cccc(-c2cc(C(=O)Nc3ccncc3)ccc2C(C)N)c1 (stereo not drawn) [Compound 13, 2′-(1-Amino-ethyl)-5′-(pyridin-4-ylcarbamoyl)-biphenyl-3-carboxylic acid butyl ester]
20 | < 100 nM | < 100 nM |  |  |  | CC(N)c1ccc(C(=O)Nc2ccncc2)cc1-c1cccc(C(=O)OCC2CCCO2)c1 (stereo not drawn) [Compound 44, 2′-(1-Amino-ethyl)-5′-(pyridin-4-ylcarbamoyl)-biphenyl-3-carboxylic acid tetrahydro-furan-2-ylmethyl ester]
21 | 100 to 1000 nM | 100 to 1000 nM |  |  |  | COC(=O)c1cc(-c2cc(C(=O)Nc3ccncc3)ccc2C(C)N)c[nH]1 (stereo not drawn) [Compound 168, 4-[2-(1-Amino-ethyl)-5-(pyridin-4-ylcarbamoyl)-phenyl]-1H-pyrrole-2-carboxylic acid methyl ester]
22 | 100 to 1000 nM | < 100 nM |  |  |  | CC(N)c1ccc(C(=O)Nc2ccncc2)cc1-c1cccc(C(=O)OCc2ccoc2)c1 (stereo not drawn) [Compound 90, 2′-(1-Amino-ethyl)-5′-(pyridin-4-ylcarbamoyl)-biphenyl-3-carboxylic acid furan-3-ylmethyl ester]
23 | < 100 nM | 100 to 1000 nM |  |  |  | CCCOC(=O)c1cccc(-c2cc(C(=O)Nc3ccncc3F)ccc2C(C)N)c1 (stereo not drawn) [Compound 12, 2′-(1-Amino-ethyl)-5′-(3-fluoro-pyridin-4-ylcarbamoyl)-biphenyl-3-carboxylic acid propyl ester]
24 | < 100 nM | 100 to 1000 nM |  |  |  | CC(N)c1ccc(C(=O)Nc2ccncc2)cc1-c1cccc(C(=O)OCCF)c1 (stereo not drawn) [Compound 60, 2′-(1-Amino-ethyl)-5′-(pyridin-4-ylcarbamoyl)-biphenyl-3-carboxylic acid 2-fluoro-ethyl ester]
